Results taken from patent publication US10752609B2, “GSK-3 inhibitors” (priority 2016, dated 2020).
Like-named read-outs stand apart in the source and are kept apart here.

Legend:
GSK3β = GSK3β (Homo sapiens, UniProt P49841); test: GSK3β kinase assay (Caliper LabChip3000 mobility shift, fluoresceinated peptide substrate); format: biochemical
pTau = pTau assay (no method described); format: cell-based
GSK3α = GSK3α (Homo sapiens, UniProt P49840); test: GSK3α kinase assay (Caliper LabChip3000 mobility shift, fluoresceinated peptide substrate)
Chain of GSK3α (P49840 whole entry, species assumed): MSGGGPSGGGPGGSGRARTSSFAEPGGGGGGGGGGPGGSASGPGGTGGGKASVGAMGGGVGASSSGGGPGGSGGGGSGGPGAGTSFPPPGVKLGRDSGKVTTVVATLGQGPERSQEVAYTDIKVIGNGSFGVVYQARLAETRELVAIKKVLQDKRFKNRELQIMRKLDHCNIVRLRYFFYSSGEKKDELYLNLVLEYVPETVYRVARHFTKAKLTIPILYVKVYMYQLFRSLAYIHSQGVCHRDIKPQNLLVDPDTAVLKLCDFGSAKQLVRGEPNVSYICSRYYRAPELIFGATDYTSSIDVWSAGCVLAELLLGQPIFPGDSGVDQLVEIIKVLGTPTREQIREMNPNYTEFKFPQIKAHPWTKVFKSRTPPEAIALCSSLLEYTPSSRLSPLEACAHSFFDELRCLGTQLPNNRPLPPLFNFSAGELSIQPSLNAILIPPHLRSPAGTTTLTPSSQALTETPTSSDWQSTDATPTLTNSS

[1] = 250 pM enzyme, 20 uM ATP, 1.5 uM peptide, 20 hours room temperature, first value of cell GSK3β/GSK3α, read-out: GSK3β (nM), IC50

Chain of GSK3β (P49841 whole entry, species assumed): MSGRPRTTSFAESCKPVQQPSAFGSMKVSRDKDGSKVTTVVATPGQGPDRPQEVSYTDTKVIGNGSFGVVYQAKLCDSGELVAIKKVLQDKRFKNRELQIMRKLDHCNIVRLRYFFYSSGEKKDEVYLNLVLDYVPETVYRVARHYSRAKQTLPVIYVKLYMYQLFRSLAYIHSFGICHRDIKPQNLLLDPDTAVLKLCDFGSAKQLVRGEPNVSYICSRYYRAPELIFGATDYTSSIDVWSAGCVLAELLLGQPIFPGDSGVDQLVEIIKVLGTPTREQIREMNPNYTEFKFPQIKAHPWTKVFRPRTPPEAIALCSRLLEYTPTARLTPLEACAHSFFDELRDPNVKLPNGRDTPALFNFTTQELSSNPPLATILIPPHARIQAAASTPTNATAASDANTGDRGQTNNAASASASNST

Row | SMILES | IC50 (GSK3β; [1]) [nM] | IC50 (pTau) [nM] | IC50 (GSK3α) [nM] | IC50 (GSK3β) [nM]
1 | Cc1cc(C#N)ccc1Nc1nccc(C(=O)Nc2cnccc2-c2ccccc2)n1 [Example 21, 2-((4-Cyano-2-methylphenyl)amino)-N-(4-phenylpyridin-3-yl)pyrimidine-4-carboxamide] | 0.43 | 97 | 0.35 | –
2 | O=C(Nc1cnccc1-c1ccccc1)c1ccnc(Nc2ccc(Cl)cc2Cl)n1 [Example 23, 2-((2,4-Dichlorophenyl)amino)-N-(4-phenylpyridin-3-yl)pyrimidine-4-carboxamide] | 6.2 | 1600 | 4.8 | –
3 | N#Cc1ccc(Nc2nccc(C(=O)Nc3cnccc3-c3ccccc3)n2)c(Cl)c1 [Example 24, 2-((2-Chloro-4-cyanophenyl)amino)-N-(4-phenylpyridin-3-yl)pyrimidine-4-carboxamide] | 3.8 | 170 | 1.6 | –
4 | O=C(Nc1cnccc1-c1ccccc1)c1ccnc(Nc2ccc(C(F)(F)F)cc2F)n1 [Example 25, 2-((2-Fluoro-4-(trifluoromethyl)phenyl)amino)-N-(4-phenylpyridin-3-yl)pyrimidine-4-carboxamide] | – | 4800 | 2.2 | 3.3
5 | O=C(Nc1cnccc1-c1ccccc1)c1ccnc(Nc2ccc(Cl)cc2F)n1 [Example 26, 2-((4-Chloro-2-fluorophenyl)amino)-N-(4-phenylpyridin-3-yl)pyrimidine-4-carboxamide] | 0.57 | 110 | 0.33 | –
6 | N#Cc1ccc(Nc2nccc(C(=O)Nc3cnccc3-c3ccccc3)n2)cc1Cl [Example 27, 2-((3-Chloro-4-cyanophenyl)amino)-N-(4-phenylpyridin-3-yl)pyrimidine-4-carboxamide] | – | 20 | 0.16 | 0.24
7 | N#Cc1ccc(Nc2nccc(C(=O)Nc3cnccc3-c3ccccc3)n2)cc1C(F)(F)F [Example 28, 2-((4-Cyano-3-(trifluoromethyl)phenyl)amino)-N-(4-phenylpyridin-3-yl)pyrimidine-4-carboxamide] | – | 170 | 0.9 | 1.5
8 | O=C(Nc1cnccc1-c1ccccc1)c1ccnc(Nc2ccc(OC(F)F)cc2Cl)n1 [Example 29, 2-((2-Chloro-4-(difluoromethoxy)phenyl)amino)-N-(4-phenylpyridin-3-yl)pyrimidine-4-carboxamide] | 4.6 | 1400 | 2.6 | –
9 | O=C(Nc1cnccc1-c1ccccc1)c1ccnc(Nc2c(F)cc(Cl)cc2F)n1 [Example 30, 2-((4-Chloro-2,6-difluorophenyl)amino)-N-(4-phenylpyridin-3-yl)pyrimidine-4-carboxamide] | 3.9 | 350 | 1.8 | –
10 | O=C(Nc1cnccc1-c1ccccc1)c1ccnc(Nc2cc(Cl)c(Cl)cc2F)n1 [Example 31, 2-((4,5-Dichloro-2-fluorophenyl)amino)-N-(4-phenylpyridin-3-yl)pyrimidine-4-carboxamide] | 0.89 | 320 | 0.52 | –
11 | O=C(Nc1cnccc1-c1ccccc1)c1ccnc(Nc2cc(F)c(Cl)cc2F)n1 [Example 32, 2-((4-Chloro-2,5-difluorophenyl)amino)-N-(4-phenylpyridin-3-yl)pyrimidine-4-carboxamide] | 0.48 | 100 | 0.56 | –
12 | O=C(Nc1cnccc1-c1ccccc1)c1ccnc(Nc2cc(OC(F)F)c(Cl)cc2F)n1 [Example 33, 2-((4-Chloro-5-(difluoromethoxy)-2-fluorophenyl)amino)-N-(4-phenylpyridin-3-yl)pyrimidine-4-carboxamide] | 2.3 | 700 | 2.1 | –
13 | O=C(Nc1cnccc1-c1ccccc1)c1ccnc(Nc2cccnc2)n1 [Example 34, N-(4-Phenylpyridin-3-yl)-2-(pyridin-3-ylamino)pyrimidine-4-carboxamide] | 1.2 | 46 | 0.69 | –
14 | O=C(Nc1cnccc1-c1ccccc1)c1ccnc(Nc2ccncc2)n1 [Example 35, N-(4-Phenylpyridin-3-yl)-2-(pyridin-4-ylamino)pyrimidine-4-carboxamide] | 1.1 | 30 | 0.63 | –
15 | Cc1cc(Nc2nccc(C(=O)Nc3cnccc3-c3ccccc3)n2)ccn1 [Example 36, 2-((2-Methylpyridin-4-yl)amino)-N-(4-phenylpyridin-3-yl)pyrimidine-4-carboxamide] | – | 36 | 0.55 | 0.84
16 | COc1cc(Nc2nccc(C(=O)Nc3cnccc3-c3ccccc3)n2)ccn1 [Example 37, 2-((2-Methoxypyridin-4-yl)amino)-N-(4-phenylpyridin-3-yl)pyrimidine-4-carboxamide] | 0.54 | 33 | 0.51 | –
17 | O=C(Nc1cnccc1-c1ccccc1)c1ccnc(Nc2ccc(OC(F)F)nc2)n1 [Example 38, 2-((6-(Difluoromethoxy)pyridin-3-yl)amino)-N-(4-phenylpyridin-3-yl)pyrimidine-4-carboxamide] | 3.1 | 130 | 1.1 | –

Row | SMILES | IC50 (GSK3β; [1]) [nM] | IC50 (pTau) [nM] | IC50 (GSK3α) [nM] | IC50 (GSK3β) [nM]
18 | O=C(Nc1cnccc1-c1ccccc1)c1ccnc(Nc2ccc(C(F)(F)F)nc2)n1 [Example 39, N-(4-Phenylpyridin-3-yl)-2-((6-(trifluoromethyl)pyridin-3-yl)amino)pyrimidine-4-carboxamide] | 3.4 | 470 | 1.5 | –
19 | Cc1nc(OC(F)F)ccc1Nc1nccc(C(=O)Nc2cnccc2-c2ccccc2)n1 [Example 40, 2-((6-(Difluoromethoxy)-2-methylpyridin-3-yl)amino)-N-(4-phenylpyridin-3-yl)pyrimidine-4-carboxamide] | 22 | 5200 | 21 | –
20 | Cc1cc(Nc2nccc(C(=O)Nc3cnccc3-c3ccccc3)n2)c(C)nc1OC(F)F [Example 41, 2-((6-(Difluoromethoxy)-2,5-dimethylpyridin-3-yl)amino)-I-(4-phenylpyridin-3-yl)pyrimidine-4-carboxamide] | 1.6 | 290 | 1.9 | –
21 | CC(C)OCCCNc1nccc(C(=O)Nc2cnccc2-c2ccccc2)n1 [Example 42, 2-((3-Isopropoxypropyl)amino)-N-(4-phenylpyridin-3-yl)pyrimidine-4-carboxamide] | 0.88 | 93 | 0.59 | –
22 | O=C(Nc1cnccc1-c1ccc(F)cc1)c1ccnc(Nc2ccccc2)n1 [Example 43, N-(4-(4-Fluorophenyl)pyridin-3-yl)-2-(phenylamino)pyrimidine-4-carboxamide] | 0.25 | 34 | 0.19 | –
23 | O=C(Nc1cnccc1-c1ccc(F)cc1)c1ccnc(Nc2ccc(F)cc2)n1 [Example 44, 2-((4-Fluorophenyl)amino)-N-(4-(4-fluorophenyl)pyridin-3-yl)pyrimidine-4-carboxamide] | 0.26 | 34 | 0.46 | –
24 | N#Cc1ccc(Nc2nccc(C(=O)Nc3cnccc3-c3ccc(F)cc3)n2)cc1 [Example 45, 2-((4-Cyanophenyl)amino)-N-(4-(4-fluorophenyl)pyridin-3-yl)pyrimidine-4-carboxamide] | 0.35 | 10 | 0.29 | –
25 | O=C(Nc1cnccc1-c1ccc(F)cc1)c1ccnc(Nc2ccc(Cl)cc2)n1 [Example 46, 2-((4-Chlorophenyl)amino)-N-(4-(4-fluorophenyl)pyridin-3-yl)pyrimidine-4-carboxamide] | 0.5 | 77 | 0.44 | –
26 | O=C(Nc1cnccc1-c1ccc(F)cc1)c1ccnc(Nc2ccc(C(F)(F)F)cc2)n1 [Example 47, N-(4-(4-Fluorophenyl)pyridin-3-yl)-2-((4-(trifluoromethyl)phenyl)amino)pyrimidine-4-carboxamide] | 2.1 | 100 | 0.7 | –
27 | O=C(Nc1cnccc1-c1ccc(F)cc1)c1ccnc(Nc2ccc(OC(F)(F)F)cc2)n1 [Example 48, N-(4-(4-Fluorophenyl)pyridin-3-yl)-2-((4-(trifluoromethoxy)phenyl)amino)pyrimidine-4-carboxamide] | 1.5 | 170 | 1.3 | –
28 | O=C(Nc1cnccc1-c1ccc(F)cc1)c1ccnc(Nc2ccc(OC(F)F)cc2)n1 [Example 49, 2-((4-(Difluoromethoxy)phenyl)amino)-N-(4-(4-fluorophenyl)pyridin-3-yl)pyrimidine-4-carboxamide] | 0.48 | 74 | 0.29 | –
29 | O=C(Nc1cnccc1-c1ccc(F)cc1)c1ccnc(Nc2ccc(OC(F)F)nc2)n1 [Example 50, 2-((6-(Difluoromethoxy)pyridin-3-yl)amino)-N-(4-(4-fluorophenyl)pyridin-3-yl)pyrimidine-4-carboxamide] | 4 | 180 | 1.5 | –
30 | O=C(Nc1cnccc1OCC(F)(F)F)c1ccnc(Nc2ccccc2)n1 [Example 51, 2-(Phenylamino)-N-(4-(2,2,2-trifluoroethoxy)pyridin-3-yl)pyrimidine-4-carboxamide] | 0.25 | 13 | 0.16 | –
31 | COc1ccc(Nc2nccc(C(=O)Nc3cnccc3OCC(F)(F)F)n2)cc1 [Example 52, 2-((4-Methoxyphenyl)amino)-N-(4-(2,2,2-trifluoroethoxy)pyridin-3-yl)pyrimidine-4-carboxamide] | 0.07 | 6 | 0.06 | –
32 | CCOc1ccc(Nc2nccc(C(=O)Nc3cnccc3OCC(F)(F)F)n2)cc1 [Example 53, 2-((4-Ethoxyphenyl)amino)-N-(4-(2,2,2-trifluoroethoxy)pyridin-3-yl)pyrimidine-4-carboxamide] | 0.35 | 10 | 0.22 | –
33 | Cc1ccc(Nc2nccc(C(=O)Nc3cnccc3OCC(F)(F)F)n2)cc1 [Example 54, 2-(p-Tolylamino)-N-(4-(2,2,2-trifluoroethoxy)pyridin-3-yl)pyrimidine-4-carboxamide] | 0.12 | 5.1 | 0.08 | –
